From PubChem BioAssay (NCI)
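96-well plates; 48 h exposure; 5 concentrations. Endpoints by linear interpolation between flanking doses. Not reached: highest tested concentration assigned. GI50 = concentration required for 50% inhibition of growth. TGI marks complete inhibition of growth.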

How the values were obtained:
Experiment in all cases: DTP human tumour cell line panel, 48 h
COLO 205 colon = system: COLO 205 colon
OVCAR-8 ovarian = system: OVCAR-8 ovarian
SK-OV-3 ovarian = system: SK-OV-3 ovarian
CCRF-CEM leukemia = system: CCRF-CEM leukemia
KM12 colon = system: KM12 colon
NCI-H460 lung = system: NCI-H460 lung
A549 NSCLC = system: A549 NSCLC
SK-MEL-2 melanoma = system: SK-MEL-2 melanoma
MOLT-4 leukemia = system: MOLT-4 leukemia
OVCAR-3 ovarian = system: OVCAR-3 ovarian
SW-620 colon = system: SW-620 colon
SF-268 CNS = system: SF-268 CNS
SF-295 CNS = system: SF-295 CNS
HCT-15 colon = system: HCT-15 colon
OVCAR-4 ovarian = system: OVCAR-4 ovarian
SF-539 CNS = system: SF-539 CNS
SNB-19 CNS = system: SNB-19 CNS
SK-MEL-28 melanoma = system: SK-MEL-28 melanoma
IGROV1 ovarian = system: IGROV1 ovarian
UO-31 renal = system: UO-31 renal
UACC-62 melanoma = system: UACC-62 melanoma
SN12C renal = system: SN12C renal
DU-145 prostate = system: DU-145 prostate
EKVX NSCLC = system: EKVX NSCLC
SNB-75 CNS = system: SNB-75 CNS
LOX IMVI melanoma = system: LOX IMVI melanoma
HOP-92 NSCLC = system: HOP-92 NSCLC
MDA-MB-435 = system: MDA-MB-435
M14 melanoma = system: M14 melanoma
HS 578T breast = system: HS 578T breast
PC-3 prostate = system: PC-3 prostate
T-47D breast = system: T-47D breast
SK-MEL-5 melanoma = system: SK-MEL-5 melanoma
RXF 393 renal = system: RXF 393 renal
RPMI-8226 leukemia = system: RPMI-8226 leukemia
HT29 colon = system: HT29 colon
NCI/ADR-RES ovarian = system: NCI/ADR-RES ovarian
U251 CNS = system: U251 CNS
MDA-MB-231 breast = system: MDA-MB-231 breast
MCF7 breast = system: MCF7 breast
NCI-H522 lung = system: NCI-H522 lung
786-0 renal = system: 786-0 renal
OVCAR-5 ovarian = system: OVCAR-5 ovarian
UACC-257 melanoma = system: UACC-257 melanoma
CAKI-1 renal = system: CAKI-1 renal
BT-549 breast = system: BT-549 breast
TK-10 renal = system: TK-10 renal
A498 renal = system: A498 renal
NCI-H23 lung = system: NCI-H23 lung
HCC-2998 colon = system: HCC-2998 colon
NCI-H226 lung = system: NCI-H226 lung
K-562 leukemia = system: K-562 leukemia
HCT-116 colon = system: HCT-116 colon
ACHN renal = system: ACHN renal

In the case of `O=C(NC(=S)NS(=O)(=O)c1ccc(N2N=C3c4ccccc4CC3C2c2cccs2)cc1)c1ccccc1` (configuration not stated), the GI50 (COLO 205 colon) is reported as 38.4 µM, the TGI (COLO 205 colon) is reported as > 100 µM and the GI50 (OVCAR-8 ovarian) is reported as 20.3 µM. The TGI (OVCAR-8 ovarian) was > 100 µM, the GI50 (SK-OV-3 ovarian) was 90.8 µM and the TGI (SK-OV-3 ovarian) was > 100 µM. For the same compound, the GI50 (CCRF-CEM leukemia) was 27.9 µM, the TGI (CCRF-CEM leukemia) was > 100 µM and the GI50 (KM12 colon) was 28.2 µM. For the same compound, the TGI (KM12 colon) was 91.8 µM, the GI50 (NCI-H460 lung) was > 100 µM and the TGI (NCI-H460 lung) was > 100 µM. The GI50 (A549 NSCLC) was 20.3 µM, the TGI (A549 NSCLC) was > 100 µM and the GI50 (SK-MEL-2 melanoma) was 44 µM. The TGI (SK-MEL-2 melanoma) was > 100 µM, the GI50 (MOLT-4 leukemia) was 26.2 µM and the TGI (MOLT-4 leukemia) was 69.9 µM. The GI50 (OVCAR-3 ovarian) was 30.6 µM, the TGI (OVCAR-3 ovarian) was > 100 µM and the GI50 (SW-620 colon) was 34.8 µM. The TGI (SW-620 colon) was > 100 µM, the GI50 (SF-268 CNS) was > 100 µM and the TGI (SF-268 CNS) was > 100 µM. It also gave a GI50 (SF-295 CNS) of 25.4 µM, a TGI (SF-295 CNS) of 78.6 µM and a GI50 (HCT-15 colon) of 30.2 µM. For the same compound, the TGI (HCT-15 colon) was > 100 µM, the GI50 (OVCAR-4 ovarian) was 87.6 µM and the TGI (OVCAR-4 ovarian) was > 100 µM. For the same compound, the GI50 (SF-539 CNS) was 27.9 µM, the TGI (SF-539 CNS) was 84.6 µM and the GI50 (SNB-19 CNS) was 46.3 µM. The TGI (SNB-19 CNS) was > 100 µM, the GI50 (SK-MEL-28 melanoma) was 84 µM and the TGI (SK-MEL-28 melanoma) was > 100 µM. For the same compound, the GI50 (IGROV1 ovarian) was 3.14 µM, the TGI (IGROV1 ovarian) was > 100 µM and the GI50 (UO-31 renal) was 41.1 µM. For the same compound, the TGI (UO-31 renal) was > 100 µM, the GI50 (UACC-62 melanoma) was 14.6 µM and the TGI (UACC-62 melanoma) was 36.8 µM. The GI50 (SN12C renal) was 26 µM, the TGI (SN12C renal) was 96.9 µM and the GI50 (DU-145 prostate) was 28.3 µM. For the same compound, the TGI (DU-145 prostate) was > 100 µM, the GI50 (EKVX NSCLC) was 19.6 µM and the TGI (EKVX NSCLC) was > 100 µM. The GI50 (SNB-75 CNS) was > 100 µM, the TGI (SNB-75 CNS) was > 100 µM and the GI50 (LOX IMVI melanoma) was 15.2 µM. The TGI (LOX IMVI melanoma) was 31.7 µM, the GI50 (HOP-92 NSCLC) was 53.1 µM and the TGI (HOP-92 NSCLC) was > 100 µM. It also gave a GI50 (MDA-MB-435) of 21.7 µM, a TGI (MDA-MB-435) of 60.6 µM and a GI50 (M14 melanoma) of 21.5 µM. For the same compound, the TGI (M14 melanoma) was 58.9 µM, the GI50 (HS 578T breast) was 16.1 µM and the TGI (HS 578T breast) was 68 µM. The GI50 (PC-3 prostate) was 29.7 µM, the TGI (PC-3 prostate) was > 100 µM and the GI50 (T-47D breast) was 69.6 µM. The TGI (T-47D breast) was > 100 µM, the GI50 (SK-MEL-5 melanoma) was 16.9 µM and the TGI (SK-MEL-5 melanoma) was 46.5 µM. The GI50 (RXF 393 renal) was 54 µM, the TGI (RXF 393 renal) was > 100 µM and the GI50 (RPMI-8226 leukemia) was 29.7 µM. The TGI (RPMI-8226 leukemia) was > 100 µM, the GI50 (HT29 colon) was 46 µM and the TGI (HT29 colon) was > 100 µM. The GI50 (NCI/ADR-RES ovarian) was 18.8 µM, the TGI (NCI/ADR-RES ovarian) was 67.1 µM and the GI50 (U251 CNS) was 20.1 µM. For the same compound, the TGI (U251 CNS) was 82.3 µM, the GI50 (MDA-MB-231 breast) was 22.5 µM and the TGI (MDA-MB-231 breast) was 90.1 µM. The GI50 (MCF7 breast) was > 100 µM, the TGI (MCF7 breast) was > 100 µM and the GI50 (NCI-H522 lung) was 20.5 µM. The TGI (NCI-H522 lung) was 80.9 µM, the GI50 (786-0 renal) was 27.9 µM and the TGI (786-0 renal) was > 100 µM. The GI50 (OVCAR-5 ovarian) was 18.7 µM, the TGI (OVCAR-5 ovarian) was 71.7 µM and the GI50 (UACC-257 melanoma) was 42.8 µM. The TGI (UACC-257 melanoma) was > 100 µM, the GI50 (CAKI-1 renal) was 26.1 µM and the TGI (CAKI-1 renal) was 77.4 µM. For the same compound, the GI50 (BT-549 breast) was 21.6 µM and the TGI (BT-549 breast) was > 100 µM.

`CCC1OC2C(CC=C(C)C)=C3OC(C)(O)C(C)(CC)C(O)C3=C3OC(=O)C=C1C32` (configuration not stated) was tested, and the TGI (COLO 205 colon) was > 100 µM, the TGI (SK-OV-3 ovarian) was > 100 µM and the TGI (CCRF-CEM leukemia) was > 100 µM. For the same compound, the TGI (KM12 colon) was > 100 µM, the TGI (TK-10 renal) was > 100 µM and the TGI (NCI-H460 lung) was 70.5 µM. The TGI (A549 NSCLC) was > 100 µM, the TGI (SK-MEL-2 melanoma) was 84.5 µM and the TGI (MOLT-4 leukemia) was > 100 µM. For the same compound, the TGI (A498 renal) was > 100 µM, the TGI (SW-620 colon) was > 100 µM and the TGI (SF-268 CNS) was > 100 µM. The TGI (SF-295 CNS) was > 100 µM, the TGI (HCT-15 colon) was > 100 µM and the TGI (OVCAR-4 ovarian) was > 100 µM. For the same compound, the TGI (SF-539 CNS) was 53.6 µM, the TGI (SNB-19 CNS) was > 100 µM and the TGI (SK-MEL-28 melanoma) was > 100 µM. For the same compound, the TGI (UO-31 renal) was > 100 µM, the TGI (UACC-62 melanoma) was > 100 µM and the TGI (NCI-H23 lung) was 57.7 µM. For the same compound, the TGI (HCC-2998 colon) was > 100 µM, the TGI (DU-145 prostate) was > 100 µM and the TGI (EKVX NSCLC) was > 100 µM. The TGI (LOX IMVI melanoma) was 35.9 µM, the TGI (HOP-92 NSCLC) was 54.9 µM and the TGI (NCI-H226 lung) was > 100 µM. The TGI (MDA-MB-435) was > 100 µM, the TGI (M14 melanoma) was > 100 µM and the TGI (PC-3 prostate) was > 100 µM. For the same compound, the TGI (T-47D breast) was > 100 µM, the TGI (SK-MEL-5 melanoma) was > 100 µM and the TGI (RPMI-8226 leukemia) was > 100 µM. For the same compound, the TGI (NCI/ADR-RES ovarian) was > 100 µM, the TGI (U251 CNS) was > 100 µM and the TGI (MDA-MB-231 breast) was 75.5 µM. The TGI (MCF7 breast) was > 100 µM, the TGI (K-562 leukemia) was > 100 µM and the TGI (786-0 renal) was > 100 µM. For the same compound, the TGI (OVCAR-5 ovarian) was > 100 µM, the TGI (UACC-257 melanoma) was > 100 µM and the TGI (CAKI-1 renal) was > 100 µM. For the same compound, the TGI (HCT-116 colon) was > 100 µM, the TGI (ACHN renal) was > 100 µM and the TGI (BT-549 breast) was 71 µM.
